Source: patent US20060141044A1, “Pharmaceutical compositions based on diclofenac derivate” (priority 2003, published 2006)

Experiment: Aqueous solubility / Biopharmaceutical Classification System classification
Type: physicochemical
Excerpt: 2-[2-(nitrooxy)ethoxy]ethyl {2-[(2,6-dichlorophenyl)amino]phenyl}acetate is a lipophilic drug with poor aqueous solubility and a low melting point. Said drug can be classified into class 2 according to the Biopharmaceutical Classification System proposed by Amidon et al. (Pharm. Res. 12 (1995) pp. 413420). Compounds of this class are characterised by their low aqueous solubility but reasonably well permeability. A biopharmaceutical problem with these drugs is that their absorption from the gastro-intestinal tract (GIT) may be dissolution rate limited, resulting in poor bioavailibility upon oral administration. One object of the invention is to provide an oral drug delivery composition with satisfactory bioavailability.

- aqueous solubility (qualitative statement): poor
- class according to the Biopharmaceutical Classification System (system proposed by Amidon et al.): class 2
SMILES: O=C(Cc1ccccc1Nc1c(Cl)cccc1Cl)OCCOCCO[N+](=O)[O-] [2-[2-(nitrooxy)ethoxy]ethyl {2-[(2,6-dichlorophenyl)amino]phenyl}acetate]
